Values quoted from earlier work in article PMC6271933, “Evaluation of the Toxicity of 5-Aryl-2-Aminoimidazole-Based Biofilm Inhibitors against Eukaryotic Cell Lines, Bone Cells and the Nematode Caenorhabditis elegans” (Molecules, 2014).

How the values were obtained:
several tumor cell lines = system: several tumor cell lines; set-up: method as in PMID 1783523, PMID 15133248; settings: cited from earlier work
[1] = system: murine-grafted tumors, including P388 and L1210 leukemias, and solid tumors; set-up: method as in PMID 1783523, PMID 15133248; settings: cited from earlier work
[2] = system: calcium entry in PC12 cells; set-up: method as in PMID 15777959; settings: cited from earlier work
mouse ES cells = system: mouse ES cells; set-up: method as in PMID 2998604; settings: by inhibiting matrix metalloproteinase 2; cited from earlier work
[3] = system: epidermal growth factor-stimulated DNA synthesis in squamous cell tumors; settings: cited from earlier work
A-431 cells = system: A-431 cells; set-up: method as in PMID 9748366, PMID 12939464; settings: cited from earlier work
[4] = system: GH4C1 rat pituitary and N2A mouse neuroblastoma cell lines; set-up: method as in PMID 18493660; settings: compared with parent molecule bromoageliferin; cited from earlier work
HaCaT keratinocyte cells = system: HaCaT keratinocyte cells; set-up: method as in PMID 22292413; settings: cited from earlier work
Caenorhabditis elegans = system: Caenorhabditis elegans; set-up: method as in PMID 22292413; settings: cited from earlier work

## NC[C@H](Cl)[C@@H](O)c1c[nH]c(N)n1 [2a, girolline]
Several tumor cell lines
  cytotoxicity in vitro against several tumor cell lines: significant cytotoxicity
[1]
  cytotoxicity in vivo against murine-grafted tumors: significant cytotoxicity

## Nc1nc([C@@H]2c3[nH]c(N)nc3C[C@H](CNC(=O)c3cc(Br)c[nH]3)[C@H]2CNC(=O)c2cc(Br)c(Br)[nH]2)c[nH]1 [2b, bromoageliferin]
[2]
  calcium entry in PC12 cells: inhibit the calcium entry

## Nc1nc2c(-c3cc(Br)c(Br)[nH]3)nccc2[nH]1 [2d, ageladine A]
Mouse ES cells
  angiogenesis in a model using mouse ES cells: reduce angiogenesis

## COc1ccc(Cc2nc(NC3=NC(=O)N(C)C3=O)n(C)c2Cc2ccc(O)cc2)cc1 [2j, naamidine A]
[3]; squamous cell tumors
  inhibition of epidermal growth factor-stimulated DNA synthesis: potently inhibit
A-431 cells
  cell cycle arrest of A-431 cells: arrest in the G1 phase

## COc1ccc(Cc2[nH]c(=N)n(C)c2Cc2ccc(O)cc2)cc1 [2m, naamine A]
[3]; compared with naamidine A
  ability to inhibit EGFR stimulated DNA synthesis: markedly decreased ability to inhibit

## NC[C@H]1Cc2nc(N)[nH]c2C[C@@H]1CN [2n]
[4]
  cytotoxicity in GH4C1 rat pituitary and N2A mouse neuroblastoma cell lines: lack the cytotoxicity

## NC[C@@H]1Cc2[nH]c(N)nc2C[C@@H]1CN [2o]
[4]
  cytotoxicity in GH4C1 rat pituitary and N2A mouse neuroblastoma cell lines: lack the cytotoxicity

## C/C(=C\c1ccccc1)Cn1cc(CCCCCc2c[nH]c(N)n2)nn1 [2r]
HaCaT keratinocyte cells
  effect on HaCaT keratinocyte cells: differential effect
Caenorhabditis elegans
  toxicity against Caenorhabditis elegans: lack toxicity

## dibromoageliferin [2c]
[2]
  calcium entry in PC12 cells: inhibit the calcium entry
